Measured values: ChEMBL document CHEMBL1201862, “PubChem BioAssay data set” (2004)
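Dose response: 5 concentrations. Exposure: 48 h. Format: 96-well plates. Endpoint: linear interpolation; highest concentration if not reached. Abbreviation: GI50, concentration required for 50% inhibition of growth.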 Active and inactive are the calls of the source. Rule as the data show it: active = GI50 up to about 1.1 µM and inactive = higher.

How the values were obtained:
Experiment in all cases: growth of human tumour cells (NCI), 48 h
OVCAR-3 = tested on: OVCAR-3
CCRF-CEM = tested on: CCRF-CEM
MOLT-4 = tested on: MOLT-4
SN12C = tested on: SN12C
RXF 393 = tested on: RXF 393
UO-31 = tested on: UO-31
SNB-75 = tested on: SNB-75
UACC-257 = tested on: UACC-257
COLO 205 = tested on: COLO 205
SK-MEL-5 = tested on: SK-MEL-5
NCI-H23 = tested on: NCI-H23
NCI-H522 = tested on: NCI-H522
SW-620 = tested on: SW-620
DLD-1 = tested on: DLD-1
M14 = tested on: M14
OVCAR-5 = tested on: OVCAR-5
KM12 = tested on: KM12
CAKI-1 = tested on: CAKI-1
BT-549 = tested on: BT-549
NCI/ADR-RES = tested on: NCI/ADR-RES

SMILES	GI50 (OVCAR-3)	GI50 (CCRF-CEM)	GI50 (MOLT-4)	GI50 (SN12C)	GI50 (RXF 393)	GI50 (UO-31)	GI50 (SNB-75)	GI50 (UACC-257)	GI50 (COLO 205)	GI50 (SK-MEL-5)	GI50 (NCI-H23)	GI50 (NCI-H522)	GI50 (SW-620)	GI50 (DLD-1)	GI50 (M14)	GI50 (OVCAR-5)	GI50 (KM12)	GI50 (CAKI-1)	GI50 (BT-549)	GI50 (NCI/ADR-RES)
O=C1NC(=O)C(C(=O)C(=O)Nc2ccc(Br)cc2)C(=O)N1	> 100 µM (inactive)	> 100 µM (inactive)	> 100 µM (inactive)	> 100 µM (inactive)	5.04 µM (inactive)	> 100 µM (inactive)	12.1 µM (inactive)	> 100 µM (inactive)	> 100 µM (inactive)	> 100 µM (inactive)	> 100 µM (inactive)	> 100 µM (inactive)	> 100 µM (inactive)	> 100 µM (inactive)	> 100 µM (inactive)	–	–	–	–	–
CCOC(=O)C1=C(C(=O)OCC)C2(c3ccccc3)N(O1)c1ccccc1C2(C)C (stereo not drawn)	46.9 µM (inactive)	39.4 µM (inactive)	32 µM (inactive)	–	46 µM (inactive)	20.6 µM (inactive)	25.6 µM (inactive)	39.2 µM (inactive)	51.5 µM (inactive)	56.4 µM (inactive)	30 µM (inactive)	22.6 µM (inactive)	94.8 µM (inactive)	50 µM (inactive)	38.5 µM (inactive)	99.3 µM (inactive)	58.1 µM (inactive)	26.7 µM (inactive)	–	–
C=CC[P@]1(=O)O[C@H](c2ccccc2)C(C)N1C(C)C (stereo partly drawn)	> 100 µM (inactive)	> 100 µM (inactive)	> 100 µM (inactive)	> 100 µM (inactive)	> 100 µM (inactive)	> 100 µM (inactive)	> 100 µM (inactive)	> 100 µM (inactive)	> 100 µM (inactive)	> 100 µM (inactive)	> 100 µM (inactive)	> 100 µM (inactive)	> 100 µM (inactive)	> 100 µM (inactive)	> 100 µM (inactive)	> 100 µM (inactive)	> 100 µM (inactive)	–	–	–
CCN(CC)CCNC(=O)c1ccc(C)c(OCc2ccccc2)c1[N+](=O)[O-]	43.9 µM (inactive)	31.2 µM (inactive)	28.7 µM (inactive)	74.3 µM (inactive)	52.5 µM (inactive)	21 µM (inactive)	18 µM (inactive)	19.1 µM (inactive)	16 µM (inactive)	16.3 µM (inactive)	54.3 µM (inactive)	27 µM (inactive)	18.3 µM (inactive)	34.3 µM (inactive)	17.8 µM (inactive)	35.9 µM (inactive)	39.9 µM (inactive)	20.7 µM (inactive)	> 35.8 µM (inactive)	33.4 µM (inactive)
CCN(CC)CC(=O)Nc1ccc2c(c1)C(=O)c1ccc(NC(=O)CN(CC)CC)cc1C2=O	–	20.7 µM (inactive)	17.8 µM (inactive)	20.1 µM (inactive)	3.22 µM (inactive)	> 100 µM (inactive)	25.7 µM (inactive)	31.8 µM (inactive)	15.2 µM (inactive)	21.2 µM (inactive)	77.6 µM (inactive)	21.1 µM (inactive)	24.9 µM (inactive)	26.2 µM (inactive)	19.7 µM (inactive)	> 100 µM (inactive)	22.3 µM (inactive)	70.1 µM (inactive)	–	–
CC[n+]1c(/C=C/c2ccc(N(CCCl)CCCl)cc2)ccc2cc(Br)ccc21	0.587 µM (active)	0.345 µM (active)	1.46 µM (inactive)	2.48 µM (inactive)	1.31 µM (inactive)	15.1 µM (inactive)	0.312 µM (active)	1.11 µM (active)	69.7 µM (inactive)	1.1 µM (active)	2.79 µM (inactive)	0.471 µM (active)	1.93 µM (inactive)	2.71 µM (inactive)	1.87 µM (inactive)	3.99 µM (inactive)	1.68 µM (inactive)	2.62 µM (inactive)	–	–
COC1=C(C)C(=O)C2=C(C1=O)C1C3CC4=C(C(=O)C(OC)=C(C)C4=O)C(CNC(=O)C(C)O)N3C(C#N)C(C2)N1C (stereo not drawn)	< 0.01 µM (active)	< 0.01 µM (active)	< 0.01 µM (active)	< 0.01 µM (active)	< 0.0121 µM (active)	0.101 µM (active)	< 0.0104 µM (active)	< 0.01 µM (active)	< 0.01 µM (active)	< 0.01 µM (active)	< 0.0178 µM (active)	< 0.01 µM (active)	< 0.01 µM (active)	< 0.01 µM (active)	< 0.0112 µM (active)	0.0269 µM (active)	0.0119 µM (active)	0.037 µM (active)	< 0.01 µM (active)	1.46 µM (inactive)
COc1cc(CNc2nc3c(N)cc(C(F)(F)F)cc3nc2-c2ccccc2)cc(OC)c1OC	36.1 µM (inactive)	> 10 µM (inactive)	8.83 µM (inactive)	70.3 µM (inactive)	8.47 µM (inactive)	16.8 µM (inactive)	89.3 µM (inactive)	63 µM (inactive)	38.5 µM (inactive)	21.3 µM (inactive)	19 µM (inactive)	11.6 µM (inactive)	85.1 µM (inactive)	31.8 µM (inactive)	47.1 µM (inactive)	37.4 µM (inactive)	18 µM (inactive)	> 10 µM (inactive)	–	–
Cn1c2c(c3ccccc31)CCN(CCN1CCN(c3ccccc3)CC1)C2=O	–	> 100 µM (inactive)	> 100 µM (inactive)	> 100 µM (inactive)	26.7 µM (inactive)	> 100 µM (inactive)	–	–	> 100 µM (inactive)	61.1 µM (inactive)	33.5 µM (inactive)	26.3 µM (inactive)	> 100 µM (inactive)	> 100 µM (inactive)	> 100 µM (inactive)	–	–	> 100 µM (inactive)	–	–
Cc1ccc(S(=O)OCC23CC4CC(CC(C4)C2)C3)cc1 (stereo not drawn)	> 100 µM (inactive)	–	> 100 µM (inactive)	> 100 µM (inactive)	> 100 µM (inactive)	72.8 µM (inactive)	> 100 µM (inactive)	> 100 µM (inactive)	> 100 µM (inactive)	> 100 µM (inactive)	> 100 µM (inactive)	> 100 µM (inactive)	> 100 µM (inactive)	> 100 µM (inactive)	> 100 µM (inactive)	> 100 µM (inactive)	> 100 µM (inactive)	> 100 µM (inactive)	–	–
O=C(/C=C/c1cccc2ccccc12)c1ccccc1Cl	12.9 µM (inactive)	3.72 µM (inactive)	3.85 µM (inactive)	> 100 µM (inactive)	16.7 µM (inactive)	14.8 µM (inactive)	16.7 µM (inactive)	17.4 µM (inactive)	> 100 µM (inactive)	16.9 µM (inactive)	14.3 µM (inactive)	14.4 µM (inactive)	5.58 µM (inactive)	7.89 µM (inactive)	15.5 µM (inactive)	–	8.63 µM (inactive)	14.4 µM (inactive)	–	–
CCCCCCCCCCCCC(=O)OC(c1cnco1)c1nc(C(O)CC(O)C(O)C(C)O)co1 (stereo not drawn)	2.85 µM (inactive)	0.284 µM (active)	0.144 µM (active)	1.78 µM (inactive)	1.38 µM (inactive)	8.97 µM (inactive)	0.581 µM (active)	0.755 µM (active)	0.273 µM (active)	0.719 µM (active)	0.336 µM (active)	0.787 µM (active)	0.114 µM (active)	0.946 µM (active)	0.491 µM (active)	11.6 µM (inactive)	0.766 µM (active)	0.265 µM (active)	–	> 10 µM (inactive)
